Molecules are shown by their SMILES.

Test [1] has as its target T1, FLT3 (Homo sapiens, UniProt P36888).
T1 construct: made in house
T1 sequence (P36888 27-993): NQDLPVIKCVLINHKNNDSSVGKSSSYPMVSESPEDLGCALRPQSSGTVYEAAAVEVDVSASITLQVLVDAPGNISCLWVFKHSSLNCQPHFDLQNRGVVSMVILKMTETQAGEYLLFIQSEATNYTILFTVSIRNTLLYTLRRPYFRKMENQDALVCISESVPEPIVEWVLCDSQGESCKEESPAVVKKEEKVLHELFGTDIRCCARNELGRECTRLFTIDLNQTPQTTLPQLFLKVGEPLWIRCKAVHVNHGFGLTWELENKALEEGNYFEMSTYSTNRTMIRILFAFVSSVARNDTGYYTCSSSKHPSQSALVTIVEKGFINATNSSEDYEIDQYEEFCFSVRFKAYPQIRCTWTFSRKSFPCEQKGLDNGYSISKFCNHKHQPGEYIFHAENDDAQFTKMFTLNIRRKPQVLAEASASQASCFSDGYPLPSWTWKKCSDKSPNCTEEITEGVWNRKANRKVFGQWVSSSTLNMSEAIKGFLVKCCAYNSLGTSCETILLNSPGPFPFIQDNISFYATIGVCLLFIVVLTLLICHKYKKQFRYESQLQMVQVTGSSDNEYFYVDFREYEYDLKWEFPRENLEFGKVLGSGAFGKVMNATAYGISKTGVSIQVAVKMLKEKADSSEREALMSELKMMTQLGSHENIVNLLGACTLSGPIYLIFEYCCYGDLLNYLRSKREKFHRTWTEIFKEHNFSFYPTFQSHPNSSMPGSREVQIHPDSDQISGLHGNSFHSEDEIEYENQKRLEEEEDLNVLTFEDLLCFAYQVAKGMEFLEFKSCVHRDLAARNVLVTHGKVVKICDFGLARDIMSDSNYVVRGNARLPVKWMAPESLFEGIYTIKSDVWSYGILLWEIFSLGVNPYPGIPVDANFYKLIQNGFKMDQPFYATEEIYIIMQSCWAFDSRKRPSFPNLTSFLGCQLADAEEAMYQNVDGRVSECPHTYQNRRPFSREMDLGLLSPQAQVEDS
Put plainly: Competition binding assay, FLT3 Kd. The settings on record: competition binding. The procedure, abridged:
(§1)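 Phage-fused or HEK-293/DNA-tagged kinase + ligand-coated streptavidin beads + compound, 1 h RT with shaking. Wash, elute with free ligand 30 min RT, qPCR of eluted kinase. Kd: 11-point 3-fold series.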

Test [2] concerns the target T2, PDGFRβ (Homo sapiens, UniProt P09619).
T2 construct: made in house
Put plainly: Competition binding assay, PDGFRβ Kd. The settings on record: competition binding. The procedure, abridged: as §1

In test [3] the target is kinase panel containing either 386 or 392 distinct kinases. As to the kind of experiment: Kinase selectivity score S10 from competition binding panel. To be noted: 10 μM, panel of 386 or 392 distinct kinases. An outline of the steps:
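S10 is the number of kinases with percent-of-control under 10, divided by all distinct wild-type kinases tested, from a single 10 μM concentration. Binding measured by qPCR of kinase recovered from ligand-coated beads after 1 h equilibrium at room temperature; kinases were phage fusions or DNA-tagged HEK-293 products.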

T2 sequence (P09619 33-1106): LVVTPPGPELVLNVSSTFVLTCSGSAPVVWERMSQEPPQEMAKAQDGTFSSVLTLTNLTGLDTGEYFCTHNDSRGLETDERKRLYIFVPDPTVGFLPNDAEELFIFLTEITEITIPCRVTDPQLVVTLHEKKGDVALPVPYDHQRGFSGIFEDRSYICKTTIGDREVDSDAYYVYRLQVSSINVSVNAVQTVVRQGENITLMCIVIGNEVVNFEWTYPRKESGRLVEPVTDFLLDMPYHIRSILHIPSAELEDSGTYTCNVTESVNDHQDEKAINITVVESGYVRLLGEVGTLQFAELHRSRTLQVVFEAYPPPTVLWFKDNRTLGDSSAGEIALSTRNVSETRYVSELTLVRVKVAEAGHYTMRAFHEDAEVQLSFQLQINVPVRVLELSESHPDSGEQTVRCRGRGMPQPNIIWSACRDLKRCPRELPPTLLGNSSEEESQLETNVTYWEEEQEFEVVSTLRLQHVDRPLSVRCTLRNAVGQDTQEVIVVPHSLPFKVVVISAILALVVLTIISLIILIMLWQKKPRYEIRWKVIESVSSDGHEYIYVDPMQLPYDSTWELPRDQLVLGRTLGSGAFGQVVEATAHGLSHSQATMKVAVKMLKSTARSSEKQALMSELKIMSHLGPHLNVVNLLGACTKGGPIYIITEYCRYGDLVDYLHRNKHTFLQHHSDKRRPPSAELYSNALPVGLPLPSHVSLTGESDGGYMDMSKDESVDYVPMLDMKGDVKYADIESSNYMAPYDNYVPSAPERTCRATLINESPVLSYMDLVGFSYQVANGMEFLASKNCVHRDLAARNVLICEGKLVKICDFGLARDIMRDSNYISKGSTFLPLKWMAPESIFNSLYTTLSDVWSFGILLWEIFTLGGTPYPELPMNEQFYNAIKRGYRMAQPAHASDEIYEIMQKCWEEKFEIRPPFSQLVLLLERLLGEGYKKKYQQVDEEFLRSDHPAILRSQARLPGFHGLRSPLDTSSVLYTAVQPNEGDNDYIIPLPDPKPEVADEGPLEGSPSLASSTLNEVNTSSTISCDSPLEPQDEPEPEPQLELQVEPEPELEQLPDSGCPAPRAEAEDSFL

Broadly, the Kd is the constant that tells how readily two partners part at equilibrium. Read a low Kd as tighter binding. Turning to `O[C@@H]1CCCC[C@H]1Nc1nc2cc(F)c(Cn3cnc4cccnc43)cc2s1` [Example 154, (1R,2R)-2-((6-((3H-imidazo[4,5-b]pyridin-3-yl)methyl)-5-fluorobenzo[d]thiazol-2-yl)amino)cyclohexanol], the Kd in test [1] lay in the range of 1000 to 5000 nM; in test [2], 500 to 2000 nM. In test [3], the “Kinase specificity S(10)” value is reported as “A (A≤0.01)”.

With `O[C@@H]1CCCC[C@H]1Nc1nc2ccc(Cn3cnc4cc(OCCN5CCOCC5)ccc43)cc2s1` [Example 171, (1R,2R)-2-((6-((5-(2-morpholinoethoxy)-1H-benzo[d]imidazol-1-yl)methyl)benzo[d]thiazol-2-yl)amino)cyclohexanol], the Kd in test [1] is 200 to 1000 nM; in test [2], ≤ 50 nM. Further, the “Kinase specificity S(10)” value in test [3] is “C (C>0.02)”.

Regarding `CC(C)(O)c1cnc2c(c1)ncn2Cc1ccc2nc(N[C@@H]3CCCC[C@H]3O)sc2c1` [Example 109, (1R,2R)-2-((6-((6-(2-hydroxypropan-2-yl)-3H-imidazo[4,5-b]pyridin-3-yl)methyl)benzo[d]thiazol-2-yl)amino)cyclohexanol], the values for the Kd in test [1] and in test [2] were 1000 to 5000 nM and 50 to 500 nM, respectively. Moreover, the “Kinase specificity S(10)” value in test [3] is listed as “A (A≤0.01)”.

Regarding `N#Cc1cc2ncn(Cc3ccc4nc(N[C@@H]5CCCC[C@H]5O)sc4c3)c2nc1C#N` [Example 139, 3-((2-(((1R,2R)-2-hydroxycyclohexyl)amino)benzo[d]thiazol-6-yl)methyl)-3H-imidazo[4,5-b]pyridine-5,6-dicarbonitrile], the results for the Kd in test [1] and in test [2] were 200 to 1000 nM and 50 to 500 nM, respectively. Also, the “Kinase specificity S(10)” value in test [3] is “A (A≤0.01)”.

In the case of `N#Cc1cnc2c(c1)ncn2Cc1ccc2nc(N[C@@H]3CCCC[C@H]3O)oc2c1` [Example 124, 3-((2-(((1R,2R)-2-hydroxycyclohexyl)amino)benzo[d]oxazol-6-yl)methyl)-3H-imidazo[4,5-b]pyridine-6-carbonitrile], the figures for the Kd in test [1] and in test [2] were 200 to 1000 nM and ≤ 50 nM, respectively. Moreover, the “Kinase specificity S(10)” value in test [3] is on record as “B (0.01<B≤0.02)”.

On to `C#Cc1ccc2ncn(Cc3ccc4nc(N[C@@H]5CCCC[C@H]5O)sc4c3)c2c1` [Example 122, (1R,2R)-2-((6-((6-ethynyl-1H-benzo[d]imidazol-1-yl)methyl)benzo[d]thiazol-2-yl)amino)cyclohexanol], for which the Kd fell in the range of 200 to 1000 nM in test [1] and 50 to 500 nM in test [2]. Also, in test [3], the “Kinase specificity S(10)” value is “A (A≤0.01)”.

For the compound `O[C@@H]1CCCC[C@H]1Nc1nc2ccc(Cc3cnc4cnccn34)cc2s1` [Example 125, (1R,2R)-2-((6-(imidazo[1,2-a]pyrazin-3-ylmethyl)benzo[d]thiazol-2-yl)amino)cyclohexanol], the figures for the Kd in test [1] and in test [2] were 1000 to 5000 nM and 50 to 500 nM, respectively. Moreover, in test [3], the “Kinase specificity S(10)” value is “B (0.01<B≤0.02)”.

Take `Cc1cc2ncn(Cc3ccc4nc(N[C@@H]5CCCC[C@H]5O)sc4c3)c2cc1C` [Example 119, (1R,2R)-2-((6-((5,6-dimethyl-1H-benzo[d]imidazol-1-yl)methyl)benzo[d]thiazol-2-yl)amino)cyclohexanol]: the Kd in test [1] is 200 to 1000 nM; in test [2] it was ≤ 50 nM. The “Kinase specificity S(10)” value in test [3] is “A (A≤0.01)”.

Consider `O[C@@H]1CCCC[C@H]1Nc1nc2ccc(Cn3cnc4cc(F)cc(F)c43)cc2s1` [Example 148, (1R,2R)-2-((6-((5,7-difluoro-1H-benzo[d]imidazol-1-yl)methyl)benzo[d]thiazol-2-yl)amino)cyclohexanol], for which the Kd in test [1] was 1000 to 5000 nM; in test [2], 50 to 500 nM. For the same compound, the “Kinase specificity S(10)” value in test [3] is reported as “A (A≤0.01)”.

Take `CC(=O)c1ccc2c(c1)ncn2Cc1ccc2nc(N[C@@H]3CCCC[C@H]3O)sc2c1` [Example 110, 1-(1-((2-(((1R,2R)-2-hydroxycyclohexyl)amino)benzo[d]thiazol-6-yl)methyl)-1H-benzo[d]imidazol-5-yl)ethanone]: the figures for the Kd in test [1] and in test [2] were 1000 to 5000 nM and 50 to 500 nM, respectively. Also, the “Kinase specificity S(10)” value in test [3] is given as “A (A≤0.01)”.

Turning to `O[C@@H]1CCCC[C@H]1Nc1nc2ccc(Cn3cnc4cc(F)ccc43)cc2s1` [Example 129, (1R,2R)-2-((6-((5-fluoro-1H-benzo[d]imidazol-1-yl)methyl)benzo[d]thiazol-2-yl)amino)cyclohexanol], the Kd is 1000 to 5000 nM in test [1] and ≤ 50 nM in test [2]. For the same compound, the “Kinase specificity S(10)” value in test [3] is “B (0.01<B≤0.02)”.

As to `O[C@@H]1CCCC[C@H]1Nc1nc2ccc(Cc3cnc4sccn34)cc2s1` [Example 157, (1R,2R)-2-((6-(imidazo[2,1-b]thiazol-5-ylmethyl)benzo[d]thiazol-2-yl)amino)cyclohexanol], the Kd in test [1] is > 5000 nM; in test [2] it was 500 to 2000 nM. Further, the “Kinase specificity S(10)” value in test [3] was “A (A≤0.01)”.

With `O[C@@H]1CCCC[C@H]1Nc1nc2ccc(Cn3cnc4cc(OC(F)(F)F)ccc43)cc2s1` [Example 149, (1R,2R)-2-((6-((5-(trifluoromethoxy)-1H-benzo[d]imidazol-1-yl)methyl)benzo[d]thiazol-2-yl)amino)cyclohexanol], the results for the Kd in test [1] and in test [2] were 1000 to 5000 nM and ≤ 50 nM, respectively. Moreover, in test [3], the “Kinase specificity S(10)” value was “A (A≤0.01)”.

Take `Cn1nnc(-c2ccc3c(c2)ncn3Cc2ccc3nc(N[C@@H]4CCCC[C@H]4O)sc3c2)n1` [Example 227, (1R,2R)-2-((6-((5-(2-methyl-2H-tetrazol-5-yl)-1H-benzo[d]imidazol-1-yl)methyl)benzo[d]thiazol-2-yl)amino)cyclohexanol]: the Kd in test [1] was in the range of 1000 to 5000 nM; in test [2] it was 50 to 500 nM. The “Kinase specificity S(10)” value in test [3] is given as “B (0.01<B≤0.02)”.

`O[C@@H]1[C@H](O)CCC[C@H]1Nc1nc2ccc(Cn3cnc4cc(-n5cncn5)cnc43)cc2s1` [Example 234, (1R,2S,3R)-3-((6-((6-(1H-1,2,4-Triazol-1-yl)-3H-imidazo[4,5-b]pyridin-3-yl)methyl)benzo[d]thiazol-2-yl)amino)cyclohexane-1,2-diol]: the figures for the Kd in test [1] and in test [2] were 200 to 1000 nM and ≤ 50 nM, respectively. Moreover, in test [3], the “Kinase specificity S(10)” value is “A (A≤0.01)”.

Consider `O=C(c1ccn2c(Cc3ccc4nc(N[C@@H]5CCCC[C@H]5O)sc4c3)cnc2c1)N1CCCC1` [Example 223, (3-((2-(((1R,2R)-2-hydroxycyclohexyl)amino)benzo[d]thiazol-6-yl)methyl)imidazo[1,2-a]pyridin-7-yl)(pyrrolidin-1-yl)methanone], for which the results for the Kd in test [1] and in test [2] were 1000 to 5000 nM and 50 to 500 nM, respectively. In test [3], the “Kinase specificity S(10)” value was “A (A≤0.01)”.

Regarding `COc1nc2c(cc1C#N)ncn2Cc1ccc2nc(N[C@@H]3CCCC[C@H]3O)sc2c1` [Example 126, 3-((2-(((1R,2R)-2-hydroxycyclohexyl)amino)benzo[d]thiazol-6-yl)methyl)-5-methoxy-3H-imidazo[4,5-b]pyridine-6-carbonitrile], the values for the Kd in test [1] and in test [2] were 200 to 1000 nM and 50 to 500 nM, respectively. For the same compound, the “Kinase specificity S(10)” value in test [3] is on record as “A (A≤0.01)”.

`O[C@@H]1CCCC[C@H]1Nc1nc2ccc(Cn3cnc4cncnc43)cc2o1` [Example 118, (1R,2R)-2-((6-((9H-purin-9-yl)methyl)benzo[d]oxazol-2-yl)amino)cyclohexanol] had a Kd in test [1] of 1000 to 5000 nM. For the same compound, the “Kinase specificity S(10)” value in test [3] is “A (A≤0.01)”.

The record behind these values is patent US9938261B2, “Heterocyclic compounds and methods of use thereof” (AMBIT BIOSCIENCES CORPORATION, priority 2011, dated 2018).
